Assay results reported in patent publication US7528284B2, “Method for producing xylylenediamine (XDA)” (BASF Aktiengesellschaft, priority 2003, dated 2009).

Assay: Investigations of solubility of IPN in different solvents
Format: physicochemical
Protocol: Investigations of Solubility of IPN in Different Solvents
At 60° C., the solubility of IPN in mesitylene or pseudocumene is in each case below 10% by weight.

**Q.** Which “solubility of IPN in NMP” value (at 60° C.) does the source give for N#Cc1cccc(C#N)c1 [IPN, 1,3-dicyanobenzene] here?
**A.** approx. 26 % by weight

**Q.** What about the “solubility of IPN in NMP” value (at 90° C.) of the same compound?
**A.** approx. 41 % by weight

**Q.** And the “solubility of IPN in mesitylene” value (at 60° C.)?
**A.** below 10 % by weight

**Q.** And the “solubility of IPN in mesitylene” value (at 90° C.)?
**A.** 12 % by weight

**Q.** And the “solubility of IPN in pseudocumene” value (at 60° C.)?
**A.** below 10 % by weight

**Q.** And the “solubility of IPN in pseudocumene” value (at 90° C.)?
**A.** 20 % by weight
